Assay results taken from PubChem BioAssay (NCI).
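Five concentrations, 48 hours, 96-well plates. TGI is the concentration that stops growth completely.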

How the values were obtained:
Experiment in all cases: NCI tumour cell line growth inhibition, 48 h
[1] = test system: HCT-15 colon
[2] = test system: COLO 205 colon
[3] = test system: KM12 colon
[4] = test system: HL-60(TB) leukemia
[5] = test system: SF-539 CNS
[6] = test system: NCI/ADR-RES ovarian
[7] = test system: NCI-H23 lung
[8] = test system: PC-3 prostate
[9] = test system: U251 CNS
[10] = test system: OVCAR-3 ovarian
[11] = test system: NCI-H522 lung
[12] = test system: ACHN renal
[13] = test system: HCC-2998 colon

| Compound | TGI [1] [µM] | TGI [2] [µM] | TGI [3] [µM] | TGI [4] [µM] | TGI [5] [µM] | TGI [6] [µM] | TGI [7] [µM] | TGI [8] [µM] | TGI [9] [µM] | TGI [10] [µM] | TGI [11] [µM] | TGI [12] [µM] | TGI [13] [µM] |
| --- | --- | --- | --- | --- | --- | --- | --- | --- | --- | --- | --- | --- | --- |
| CN(C)Cc1cc(N=Nc2c(Cl)cccc2Cl)ccc1O | > 100 | > 100 | > 100 | > 100 | > 100 | > 100 | > 100 | > 100 | > 100 | > 100 | > 100 | > 100 | > 100 |
| CCOC(=O)N(C)CCC1CC=CC(=O)C1c1cccc(OC)c1OC (stereo not drawn) | 31.1 | 17.8 | 33.6 | 52.5 | > 100 | 80.1 | 36.3 | > 100 | 43 | 38.8 | 27.5 | > 100 | 25.8 |
| Cc1nc2ccc(S(=O)(=O)Nc3ccccn3)cc2c(=O)n1NS(=O)(=O)c1ccccn1 | > 100 | > 100 | > 100 | > 100 | > 100 | > 100 | > 100 | > 100 | > 100 | > 100 | > 100 | > 100 | > 100 |
| N#CCN(Cc1ccccc1)[C@H]1CCC[C@]1(O)/C=C/c1ccc2c(c1)OCO2 | 60.2 | 30.5 | 45.3 | 34.9 | 88.8 | 42 | 69.2 | 35.7 | 38.6 | 57.6 | 32.1 | > 100 | 33.4 |
| Cc1nc(C)c(N2CCN(C(=O)NC(CCC(=O)O)C(=O)O)CC2)c(=O)[nH]1 (stereo not drawn) | > 100 | > 100 | > 100 | > 100 | > 100 | > 100 | > 100 | > 100 | > 100 | > 100 | > 100 | > 100 | > 100 |
| COc1ccccc1/[N+]([O-])=C/c1ccccc1OC(=S)S | > 100 | 86 | > 100 | 74.5 | > 100 | > 100 | > 100 | > 100 | > 100 | > 100 | 71.4 | > 100 | 80.4 |
